Drawing on patent US8129417B2, “Substituted octahydrocyclopenta[C]pyrrol-4-amines as calcium channel blockers” (Abbott Laboratories, priority 2008, dated 2012), this text covers IC50 and inhibition for 20 compounds.

Some results are limits rather than exact numbers.

Sequence of human Cav2.2 (Q00975 whole entry): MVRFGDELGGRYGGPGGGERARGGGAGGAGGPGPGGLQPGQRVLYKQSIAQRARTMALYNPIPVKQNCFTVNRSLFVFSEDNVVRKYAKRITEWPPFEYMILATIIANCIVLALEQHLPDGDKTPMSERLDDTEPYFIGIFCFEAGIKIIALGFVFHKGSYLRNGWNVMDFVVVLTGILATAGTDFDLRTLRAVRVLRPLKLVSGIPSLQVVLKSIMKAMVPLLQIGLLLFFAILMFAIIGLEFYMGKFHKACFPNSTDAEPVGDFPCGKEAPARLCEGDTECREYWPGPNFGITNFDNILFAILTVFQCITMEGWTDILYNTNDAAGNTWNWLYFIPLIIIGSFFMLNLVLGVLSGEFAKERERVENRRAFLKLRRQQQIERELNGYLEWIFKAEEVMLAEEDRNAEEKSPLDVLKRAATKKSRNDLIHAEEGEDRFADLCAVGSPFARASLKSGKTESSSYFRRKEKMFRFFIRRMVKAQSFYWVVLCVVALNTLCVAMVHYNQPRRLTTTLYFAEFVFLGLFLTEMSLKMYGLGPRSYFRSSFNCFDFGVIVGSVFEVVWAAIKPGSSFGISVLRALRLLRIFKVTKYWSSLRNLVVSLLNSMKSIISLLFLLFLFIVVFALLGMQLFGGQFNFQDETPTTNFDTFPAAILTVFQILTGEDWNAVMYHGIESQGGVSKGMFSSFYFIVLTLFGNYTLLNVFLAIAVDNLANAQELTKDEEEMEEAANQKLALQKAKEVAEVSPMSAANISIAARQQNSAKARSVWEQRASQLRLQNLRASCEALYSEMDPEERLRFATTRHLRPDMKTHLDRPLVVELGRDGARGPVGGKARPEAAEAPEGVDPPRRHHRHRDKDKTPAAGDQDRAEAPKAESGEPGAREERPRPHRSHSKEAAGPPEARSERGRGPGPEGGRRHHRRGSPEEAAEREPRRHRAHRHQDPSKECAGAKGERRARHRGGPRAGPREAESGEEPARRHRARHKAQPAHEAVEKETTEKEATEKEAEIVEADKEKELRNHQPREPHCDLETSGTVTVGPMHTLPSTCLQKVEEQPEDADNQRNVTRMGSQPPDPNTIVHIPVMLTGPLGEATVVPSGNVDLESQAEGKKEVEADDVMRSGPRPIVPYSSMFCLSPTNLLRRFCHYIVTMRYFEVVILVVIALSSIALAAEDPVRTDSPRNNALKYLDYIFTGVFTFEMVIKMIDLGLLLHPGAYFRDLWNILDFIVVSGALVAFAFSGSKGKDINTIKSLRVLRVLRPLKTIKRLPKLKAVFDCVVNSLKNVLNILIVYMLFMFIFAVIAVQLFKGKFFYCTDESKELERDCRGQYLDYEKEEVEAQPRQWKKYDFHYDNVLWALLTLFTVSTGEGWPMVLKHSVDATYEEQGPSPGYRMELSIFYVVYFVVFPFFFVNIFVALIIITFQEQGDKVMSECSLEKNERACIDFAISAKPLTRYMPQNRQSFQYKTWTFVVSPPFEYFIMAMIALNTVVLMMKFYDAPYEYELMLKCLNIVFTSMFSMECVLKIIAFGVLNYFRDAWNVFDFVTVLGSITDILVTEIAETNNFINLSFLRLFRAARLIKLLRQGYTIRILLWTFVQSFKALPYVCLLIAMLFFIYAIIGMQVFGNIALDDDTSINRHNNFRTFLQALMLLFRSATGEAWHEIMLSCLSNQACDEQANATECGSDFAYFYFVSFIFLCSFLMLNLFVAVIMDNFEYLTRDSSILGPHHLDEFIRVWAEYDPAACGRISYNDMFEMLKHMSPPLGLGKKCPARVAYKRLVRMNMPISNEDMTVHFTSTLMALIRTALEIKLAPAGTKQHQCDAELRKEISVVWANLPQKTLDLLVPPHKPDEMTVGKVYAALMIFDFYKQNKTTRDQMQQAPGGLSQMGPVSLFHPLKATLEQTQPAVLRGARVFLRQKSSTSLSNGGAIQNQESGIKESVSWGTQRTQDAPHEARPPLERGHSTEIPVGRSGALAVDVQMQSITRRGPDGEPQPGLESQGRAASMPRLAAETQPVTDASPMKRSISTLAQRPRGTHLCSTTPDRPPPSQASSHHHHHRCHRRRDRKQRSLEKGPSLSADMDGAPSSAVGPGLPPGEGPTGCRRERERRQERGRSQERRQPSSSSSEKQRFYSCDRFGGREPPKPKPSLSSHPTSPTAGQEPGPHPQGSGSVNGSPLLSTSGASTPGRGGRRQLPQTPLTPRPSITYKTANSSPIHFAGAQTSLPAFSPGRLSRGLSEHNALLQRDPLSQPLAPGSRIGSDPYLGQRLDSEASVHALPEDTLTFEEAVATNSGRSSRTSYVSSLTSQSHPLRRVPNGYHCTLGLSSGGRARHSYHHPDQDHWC
Sequence of human Cav2.2 (P54289 25-946 partner limits assumed): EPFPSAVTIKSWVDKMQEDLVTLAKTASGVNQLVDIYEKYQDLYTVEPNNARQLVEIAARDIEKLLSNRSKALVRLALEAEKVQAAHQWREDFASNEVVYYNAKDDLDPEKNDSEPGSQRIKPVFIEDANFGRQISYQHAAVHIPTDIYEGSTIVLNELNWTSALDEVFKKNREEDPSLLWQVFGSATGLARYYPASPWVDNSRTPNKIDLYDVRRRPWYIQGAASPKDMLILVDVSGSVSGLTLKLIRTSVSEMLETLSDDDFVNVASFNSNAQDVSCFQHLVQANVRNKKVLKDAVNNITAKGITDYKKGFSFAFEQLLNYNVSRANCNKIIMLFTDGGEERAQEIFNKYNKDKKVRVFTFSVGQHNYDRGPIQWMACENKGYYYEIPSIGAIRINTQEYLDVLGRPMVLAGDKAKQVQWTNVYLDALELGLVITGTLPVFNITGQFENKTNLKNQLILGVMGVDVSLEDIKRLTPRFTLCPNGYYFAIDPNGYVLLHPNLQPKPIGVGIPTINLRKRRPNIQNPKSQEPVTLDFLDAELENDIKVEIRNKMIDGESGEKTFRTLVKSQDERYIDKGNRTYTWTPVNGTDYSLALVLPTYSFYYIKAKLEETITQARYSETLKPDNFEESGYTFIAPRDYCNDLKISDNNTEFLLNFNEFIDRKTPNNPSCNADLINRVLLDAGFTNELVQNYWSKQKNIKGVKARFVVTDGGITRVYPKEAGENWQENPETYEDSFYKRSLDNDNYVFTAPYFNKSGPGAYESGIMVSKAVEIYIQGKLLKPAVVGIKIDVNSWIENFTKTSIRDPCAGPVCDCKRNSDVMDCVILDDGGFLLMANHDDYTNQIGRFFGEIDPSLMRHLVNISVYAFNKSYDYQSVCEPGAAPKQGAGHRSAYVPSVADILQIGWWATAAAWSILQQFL
Sequence of human Cav2.2 (P54289 947-1103 partner limits assumed): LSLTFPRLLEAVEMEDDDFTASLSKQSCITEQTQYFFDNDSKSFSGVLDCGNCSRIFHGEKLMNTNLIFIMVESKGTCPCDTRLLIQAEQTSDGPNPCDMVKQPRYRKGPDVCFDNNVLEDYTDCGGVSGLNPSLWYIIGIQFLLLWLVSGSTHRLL
Sequence of human Cav2.2 (P54284 whole entry partner): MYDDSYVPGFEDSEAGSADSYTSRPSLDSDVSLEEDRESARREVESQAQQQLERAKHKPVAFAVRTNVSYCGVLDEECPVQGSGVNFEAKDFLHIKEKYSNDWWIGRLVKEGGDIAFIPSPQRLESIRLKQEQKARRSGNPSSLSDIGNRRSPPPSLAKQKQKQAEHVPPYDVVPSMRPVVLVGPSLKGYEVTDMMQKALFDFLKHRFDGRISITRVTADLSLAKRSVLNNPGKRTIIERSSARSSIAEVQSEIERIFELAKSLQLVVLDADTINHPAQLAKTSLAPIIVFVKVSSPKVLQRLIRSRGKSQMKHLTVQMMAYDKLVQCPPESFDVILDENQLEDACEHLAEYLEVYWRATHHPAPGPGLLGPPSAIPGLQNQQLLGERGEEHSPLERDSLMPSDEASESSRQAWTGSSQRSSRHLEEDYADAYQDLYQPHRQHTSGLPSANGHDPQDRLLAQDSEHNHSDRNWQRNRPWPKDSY

One experiment concerns the target human Cav2.2 (Homo sapiens, UniProt Q00975). Kind of experiment: Assessment of calcium channel activity using FLIPR (Ca2+ influx in IMR32 cells). The conditions noted are these: 3 minute pre-incubation with compound (*), 2 μM nifedipine, depolarized with 80 mM KCl. The experiment is classed as cell-based. The procedure, abridged: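 IMR32 neuroblastoma cells seeded at 1-1.2×10^5 cells/well and grown 48 h at 37 °C before FLIPR Ca2+ influx read. Percent inhibition at each concentration vs no-inhibitor activity; IC50 by non-linear sigmoidal dose-response fit.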
Turning to `CC(C)C(C(=O)N[C@H]1CC[C@@H]2CN(CCCc3cccc(Cl)c3)C[C@@H]21)c1ccccc1` (stereo partly drawn) [Example 109, N-{(3aR,4S,6aS)-2-[3-(3-chlorophenyl)propyl]octahydrocyclopenta[c]pyrrol-4-yl}-3-methyl-2-phenylbutanamide], the half-inhibitory concentration (IC50) is 9000 nM.

The experiment is the same for the next values; noted with them: 60 minute pre-incubation with compound, 2 μM nifedipine, depolarized with 80 mM KCl.
Consider `CC(C)C[C@H](NCC(C)(C)C)C(=O)N[C@H]1CC[C@@H]2CN(S(=O)(=O)c3ccc(C(F)(F)F)cc3)C[C@@H]21` [Example 256, N^2-neopentyl-N^1-((3aR,4S,6aS)-2-{[4-(trifluoromethyl)phenyl]sulfonyl}octahydrocyclopenta[c]pyrrol-4-yl)-L-leucinamide], for which the IC50 is 1380 nM. As for `CC(C)C[C@H](NS(=O)(=O)C1CCCC1)C(=O)N[C@@H]1CC[C@H]2CN(Cc3cccc(C(F)(F)F)c3)C[C@H]21` [Example 524, N^2-(cyclopentylsulfonyl)-N^1-{(3aS,4R,6aR)-2-[3-(trifluoromethyl)benzyl]octahydrocyclopenta[c]pyrrol-4-yl}-L-leucinamide], the half-inhibitory concentration (IC50) was 2070 nM. On to `CC[C@H](C)[C@@H](C(=O)N[C@H]1CC[C@@H]2CN(S(=O)(=O)c3cccc(C(F)(F)F)c3)C[C@@H]21)N(C)C(=O)OC(C)(C)C` [Example 332, tert-butyl methyl((2S,3S)-3-methyl-1-oxo-1-((3aR,4S,6aS)-2-(3-(trifluoromethyl)phenylsulfonyl)octahydrocyclopenta[c]pyrrol-4-ylamino)pentan-2-yl)carbamate], for which the IC50 was found to be 480 nM. For the compound `CN[C@@H](CC(C)(C)C)C(=O)N[C@@H]1CC[C@H]2CN(S(=O)(=O)c3cccc(C(F)(F)F)c3)C[C@H]21` [Example 416, N^2,4-dimethyl-N^1-((3aS,4R,6aR)-2-{[3-(trifluoromethyl)phenyl]sulfonyl}octahydrocyclopenta[c]pyrrol-4-yl)-L-leucinamide], the IC50 came to 1330 nM. As to `CCC[C@H](NC)C(=O)N[C@H]1CC[C@@H]2CN(S(=O)(=O)c3ccc(Br)c(C(F)(F)F)c3)C[C@@H]21` [Example 541, N^1-((3aR,4S,6aS)-2-{[4-bromo-3-(trifluoromethyl)phenyl]sulfonyl}octahydrocyclopenta[c]pyrrol-4-yl)-N^2-methyl-L-norvalinamide], the IC50 is 2570 nM.

For `O=S(=O)(c1cccc(C(F)(F)F)c1)N(C1CC1)[C@H]1CC[C@H]2CNC[C@H]21` (relative stereo) [Example 201, N-cyclopropyl-N-[(3aS*,4S*,6aR*)-octahydrocyclopenta[c]pyrrol-4-yl]-3-(trifluoromethyl)benzenesulfonamide], the IC50 stood at 5200 nM.

Take `CC(C)(C)OC(=O)N1CCCC[C@H]1C(=O)N[C@@H]1CC[C@H]2CN(S(=O)(=O)c3cccc(C(F)(F)F)c3)C[C@H]21` [Example 268, tert-butyl(2S)-2-{[((3aS,4R,6aR)-2-{[3-(trifluoromethyl)phenyl]sulfonyl}octahydrocyclopenta[c]pyrrol-4-yl)amino]carbonyl}piperidine-1-carboxylate]: the half-maximal inhibitory concentration (IC50) is 730 nM. With `O=C(N[C@H]1CC[C@H]2CN(Cc3ccc(F)cc3)C[C@H]21)C(C1CCCCC1)C1CCCCC1` [Example 56, 2,2-dicyclohexyl-N-[(3aS,4S,6aR)-2-(4-fluorobenzyl)octahydrocyclopenta[c]pyrrol-4-yl]acetamide], the IC50 was 1000 nM. As to `CC(C)C[C@H](NC(=O)OC(C)(C)C)C(=O)N[C@H]1CC[C@@H]2CN(Cc3cccc(C(F)(F)F)c3)C[C@@H]21` [Example 306, tert-butyl(S)-4-methyl-1-oxo-1-((3aR,4S,6aS)-2-(3-(trifluoromethyl)benzyl)octahydrocyclopenta[c]pyrrol-4-ylamino)pentan-2-ylcarbamate], the IC50 amounted to 500 nM. On to `CC(C)(C)C[C@H](NC(=O)OC(C)(C)C)C(=O)N[C@H]1CC[C@@H]2CN(c3cnc(S(C)(=O)=O)nc3)C[C@@H]21` [Example 265, tert-butyl(S)-4,4-dimethyl-1-((3aR,4S,6aS)-2-(2-(methylsulfonyl)pyrimidin-5-yl)octahydrocyclopenta[c]pyrrol-4-ylamino)-1-oxopentan-2-ylcarbamate], for which the IC50 was 2620 nM. Turning to `CC(C)N[C@@H](CC(C)(C)C)C(=O)N[C@H]1CC[C@@H]2CN(S(=O)(=O)c3ccc(C(F)(F)F)cc3Cl)C[C@@H]21` [Example 487, N^1-((3aR,4S,6aS)-2-{[2-chloro-4-(trifluoromethyl)phenyl]sulfonyl}octahydrocyclopenta[c]pyrrol-4-yl)-N^2-isopropyl-4-methyl-L-leucinamide], the IC50 is 560 nM. On to `CC(C)(C)C[C@H](NCC1CCCC1)C(=O)N[C@H]1CC[C@@H]2CN(S(=O)(=O)c3ccc(C(F)(F)F)cc3)C[C@@H]21` [Example 474, N^2-(cyclopentylmethyl)-4-methyl-N^1-((3aR,4S,6aS)-2-{[4-(trifluoromethyl)phenyl]sulfonyl}octahydrocyclopenta[c]pyrrol-4-yl)-L-leucinamide], for which the 50% inhibitory concentration (IC50) is 1740 nM. As for `O=S(=O)(N[C@@H]1CC[C@H]2CN(Cc3ccc(C(F)(F)F)c(F)c3)C[C@H]21)c1cccc(C(F)(F)F)c1` [Example 194, N-{(3aS,4R,6aR)-2-[3-fluoro-4-(trifluoromethyl)benzyl]octahydrocyclopenta[c]pyrrol-4-yl}-3-(trifluoromethyl)benzenesulfonamide], the IC50 was determined as 1400 nM. Consider `CC(C)(C)C[C@H](NS(C)(=O)=O)C(=O)N[C@H]1CC[C@@H]2CN(Cc3ccc(C(F)(F)F)cc3)C[C@@H]21` [Example 519, 4-methyl-N^2-(methylsulfonyl)-N^1-{(3aR,4S,6aS)-2-[4-(trifluoromethyl)benzyl]octahydrocyclopenta[c]pyrrol-4-yl}-L-leucinamide], for which the concentration for half-maximal inhibition (IC50) is 5140 nM. Consider `CN[C@@H](CC(C)C)C(=O)N[C@H]1CC[C@@H]2CN(S(=O)(=O)c3ccc(F)cc3)C[C@@H]21` [Example 455, N^1-{(3aR,4S,6aS)-2-[(4-fluorophenyl)sulfonyl]octahydrocyclopenta[c]pyrrol-4-yl}-N^2-methyl-L-leucinamide], for which the half-maximal inhibitory concentration (IC50) is 3030 nM. `O=C(N[C@H]1CC[C@H]2CN(S(=O)(=O)CCc3cccc4ccccc34)C[C@H]21)C(C1CCCCC1)C1CCCCC1` [Example 207, 2,2-dicyclohexyl-N-((3aS,4S,6aR)-2-{[2-(1-naphthyl)ethyl]sulfonyl}octahydrocyclopenta[c]pyrrol-4-yl)acetamide]: the IC50 is greater than 100000 nM. Consider `CCC[C@@H](C(=O)N[C@H]1CC[C@@H]2CN(Cc3cccc(C(F)(F)F)c3)C[C@@H]21)N(C)C(=O)OC(C)(C)C` [Example 313, tert-butyl methyl((S)-1-oxo-1-((3aR,4S,6aS)-2-(3-(trifluoromethyl)benzyl)octahydrocyclopenta[c]pyrrol-4-ylamino)pentan-2-yl)carbamate], for which the IC50 is 2100 nM. Turning to `CCC[C@H](NC)C(=O)N[C@@H]1CC[C@@H]2CN(S(=O)(=O)c3ccc(C(F)(F)F)cc3)C[C@@H]21` [Example 420, N^2-methyl-N^1-((3aR,4R,6aS)-2-{[4-(trifluoromethyl)phenyl]sulfonyl}octahydrocyclopenta[c]pyrrol-4-yl)-L-norvalinamide], the IC50 was found to be 5700 nM.

Still in this experiment, the particulars now being: IMR-32, @ 10 μM, 3 minute pre-incubation (*), read-out: percent inhibition.
Take `CC(C)N(C(=O)N[C@H]1CC[C@@H]2CN(Cc3ccccc3)C[C@@H]21)c1ccccc1` [Example 219, N′-[(3aR,4S,6aS)-2-benzyloctahydrocyclopenta[c]pyrrol-4-yl]-N-isopropyl-N-phenylurea]: the inhibition at 10 µM came to 63%.

By IC50 is commonly meant the point on the concentration scale where inhibition reaches its midpoint. As usually defined, the inhibition is the share of the control response that was lost under treatment.
